This is an account of results in paper PMC8231556, “Inhibiting Endothelial Cell Function in Normal and Tumor Angiogenesis Using BMP Type I Receptor Macrocyclic Kinase Inhibitors” (Cancers, 2021).

SMILES strings stand for the structures.

In data set [1] the test system is Tg (fli:EGFP) zebrafish embryos. Nature of the data set: Zebrafish subintestinal vessel (SIV) formation. The data set is classed as in vivo. Conditions: 0.5 µM, 3 days. As to the method:
The Tg (fli:EGFP) zebrafish embryos were collected, and embryos with the same development stage (around 2.5 hpf) were selected. Groups containing at least 25 embryos were treated with the indicated compounds at 0.5 µM for 3 days. The egg water was refreshed every day, and the abnormal embryos were removed. After 3 days of treatment, the zebrafish embryos were fixed in 4% PFA for 2 h at room temperature and stored at 4 °C in PBS. The area containing SIV in each zebrafish embryo was scanned with an Andor Dragonfly 500 spinning disk confocal by using a 488 nm laser. At least ten zebrafish embryos in each group were randomly selected and analyzed. The SIV vasculature of the zebrafish was quantified with ImageJ. The leading buds were counted as previously described. The experiments were repeated twice with similar results.

The next data set deals with VEGF-induced pERK. Nature of the data set: Western blot of VEGF-induced ERK MAP kinase phosphorylation in HUVECs. The data set is classed as cell-based, human. The settings on record: VEGF 40 ng/mL. As for the experimental part: EA.hy926 cells or HUVECs were seeded in 6-well plates and starved in a serum-free medium for 4 h after reaching 80% confluence. The compounds were added 30 min prior to stimulation with the corresponding ligands. EA.hy926 cells were incubated with BMP9 (1 ng/mL), BMP6 (50 ng/mL), TGF-β2 (1 ng/mL), or vehicle control for 1 h. For HUVECs, after 4 h starvation, the cells were pre-treated with or without the indicated compounds for 30 min and subsequently stimulated with VEGF (40 ng/mL) for 10 min. The cells were harvested and lysed in radioimmunoprecipitation assay (RIPA) lysis buffer containing 1× complete protease inhibitor cocktail (11836153001, Roche, Basel, Switzerland). The protein concentration was determined using the DC protein assay kit (5000111, Bio-Rad). After adding loading buffer, the samples were boiled and proteins separated by sodium dodecyl sulfate polyacrylamide gel electrophoresis (SDS-PAGE). Proteins in the gel were transferred to polyvinylidene difluoride (PVDF) membranes (IPVH00010, Merck Millipore, Burlington, MA, USA) and immunoblotted with 1000 times diluted primary antibodies: phospho-SMAD1/5 (9516 S, Cell Signaling Technology, Leiden, The Netherlands), phospho-SMAD2 (pSMAD2, home-made), SMAD1 (6944 S, Cell Signaling Technology), SMAD2 (3103 S, Cell Signaling Technology), phospho-extracellular signal-regulated kinase/mitogen-activated protein kinase (pERK/MAPK, 4370, Cell Signaling Technology), mitogen-activated protein kinase/ERK1/2 (ERK1/2/MAPK, 9102 S, Cell Signaling Techonol), VEGFR (2479, Cell Signaling), pVEGFR (2478, Cell Signaling Technology), α/β-Tubulin (2148, Cell Signaling Technology), glyceraldehyde 3-phosphate dehydrogenase (GAPDH, MAB374, Merck Millipore). Clarity™ enhanced chemiluminescence (ECL) reagent (1705060, Bio-Rad) was used to visualize secondary antibodies conjugated to horseradish peroxidase (HRP). GAPDH or Tubulin was used as protein loading controls. […] The protein bands were quantified using ImageJ (National Institutes of Health, Bethesda, MD, USA).
On the technique in general: In western blotting, separated proteins are transferred to a membrane and probed.

A further data set has as its target ALK1 (Homo sapiens, UniProt P37023). Description: radiometric protein kinase assay, affinity (Kd). The data set is classed as binding. As to the method: The binding interaction profile of the compounds for ALK1–6, ACVR2A, ACVR2B, and TGFβR2 was determined by using radiometric protein kinase assay. For each compound, ten different concentrations (from 3 × 10^−6 M to 9 × 10^−11 M) were used in the protein kinase reaction.

The next data set concerns the target T1, BRAF (Homo sapiens, UniProt P15056).
T1 construct: purchased Proqinase, Germany
Description: radiometric kinase profiling (33 PanQinase). The data set is classed as biochemical. Conditions: read-out: Inhibitory effect (%) BRAF. Put shortly:
(§1)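 Enzyme/substrate mixes were incubated with [γ-33P]-ATP and compound (added as a 0.1 μM solution in 10% DMSO) at 30 °C for 60 min, then stopped with H3PO4 and washed with NaCl. 33P incorporation was scintillation-counted, and residual activity (%) was normalized to untreated control and background.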

In a further data set the target is T2, MAP4K5 (Homo sapiens, UniProt Q9Y4K4).
T2 construct: purchased ProQinase (33PanQinase Activity Assay)
T2 sequence (Q9Y4K4 whole entry): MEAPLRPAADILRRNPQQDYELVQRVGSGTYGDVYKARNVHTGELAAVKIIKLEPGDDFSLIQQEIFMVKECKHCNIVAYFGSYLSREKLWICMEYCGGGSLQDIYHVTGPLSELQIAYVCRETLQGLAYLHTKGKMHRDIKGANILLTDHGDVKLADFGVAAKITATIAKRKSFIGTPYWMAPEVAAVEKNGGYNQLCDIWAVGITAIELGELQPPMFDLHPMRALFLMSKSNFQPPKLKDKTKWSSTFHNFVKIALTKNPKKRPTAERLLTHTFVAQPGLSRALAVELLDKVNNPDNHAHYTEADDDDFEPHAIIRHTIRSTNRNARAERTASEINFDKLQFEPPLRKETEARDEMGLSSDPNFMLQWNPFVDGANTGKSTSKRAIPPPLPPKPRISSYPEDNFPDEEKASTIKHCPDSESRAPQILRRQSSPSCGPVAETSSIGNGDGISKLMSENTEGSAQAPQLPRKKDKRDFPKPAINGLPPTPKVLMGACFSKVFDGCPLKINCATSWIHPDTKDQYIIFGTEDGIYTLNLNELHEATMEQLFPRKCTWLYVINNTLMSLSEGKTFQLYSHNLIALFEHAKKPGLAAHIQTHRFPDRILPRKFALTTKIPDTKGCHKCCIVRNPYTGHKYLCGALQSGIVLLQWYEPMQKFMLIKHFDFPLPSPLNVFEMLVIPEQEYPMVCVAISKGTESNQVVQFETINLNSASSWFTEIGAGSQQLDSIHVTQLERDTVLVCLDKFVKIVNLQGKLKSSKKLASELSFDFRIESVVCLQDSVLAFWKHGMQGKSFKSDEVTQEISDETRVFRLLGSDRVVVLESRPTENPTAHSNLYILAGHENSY
Description: radiometric kinase profiling (33 PanQinase). Conditions: read-out: Inhibitory effect (%) MAP4K5. In kind it is biochemical. Put shortly:
as §1

In a further data set the target is T3, FGFR3 (Homo sapiens, UniProt P22607).
T3 construct: purchased ProQinase (33PanQinase Activity Assay)
T3 sequence (P22607 23-806): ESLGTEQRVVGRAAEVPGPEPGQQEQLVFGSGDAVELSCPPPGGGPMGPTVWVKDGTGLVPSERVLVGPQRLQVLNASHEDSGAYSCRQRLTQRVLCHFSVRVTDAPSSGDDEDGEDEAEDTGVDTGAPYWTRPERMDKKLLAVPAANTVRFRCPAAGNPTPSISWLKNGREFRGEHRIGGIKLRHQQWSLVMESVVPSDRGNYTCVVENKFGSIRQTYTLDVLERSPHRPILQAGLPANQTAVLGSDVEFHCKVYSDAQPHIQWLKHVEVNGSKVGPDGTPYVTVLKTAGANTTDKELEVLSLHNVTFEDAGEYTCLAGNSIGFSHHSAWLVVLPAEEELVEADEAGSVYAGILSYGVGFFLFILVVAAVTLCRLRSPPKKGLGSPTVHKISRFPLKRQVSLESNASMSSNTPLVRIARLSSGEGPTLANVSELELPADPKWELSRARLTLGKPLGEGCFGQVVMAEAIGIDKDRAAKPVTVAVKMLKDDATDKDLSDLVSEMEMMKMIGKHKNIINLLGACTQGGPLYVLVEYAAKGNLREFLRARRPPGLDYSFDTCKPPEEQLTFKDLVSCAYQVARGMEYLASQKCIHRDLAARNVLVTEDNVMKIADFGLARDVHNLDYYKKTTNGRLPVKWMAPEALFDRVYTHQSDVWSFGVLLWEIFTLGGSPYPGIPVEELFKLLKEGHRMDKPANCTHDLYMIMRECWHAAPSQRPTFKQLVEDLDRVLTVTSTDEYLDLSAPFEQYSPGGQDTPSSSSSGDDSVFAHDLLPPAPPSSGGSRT
Nature of the data set: radiometric kinase profiling (33 PanQinase). In kind it is biochemical. Conditions: read-out: Inhibitory effect (%) FGFR3. Put shortly: as §1

A further data set has as its target T4, FLT3 (Homo sapiens, UniProt P36888).
T4 construct: purchased ProQinase (33PanQinase Activity Assay)
Description: radiometric kinase profiling (33 PanQinase). In kind it is biochemical. The settings on record: read-out: Inhibitory effect (%) FLT3. Put shortly:
as §1

A further data set deals with T5, MAP4K4 (Homo sapiens, UniProt O95819).
T5 construct: purchased ProQinase (33PanQinase Activity Assay)
T5 sequence (O95819 whole entry): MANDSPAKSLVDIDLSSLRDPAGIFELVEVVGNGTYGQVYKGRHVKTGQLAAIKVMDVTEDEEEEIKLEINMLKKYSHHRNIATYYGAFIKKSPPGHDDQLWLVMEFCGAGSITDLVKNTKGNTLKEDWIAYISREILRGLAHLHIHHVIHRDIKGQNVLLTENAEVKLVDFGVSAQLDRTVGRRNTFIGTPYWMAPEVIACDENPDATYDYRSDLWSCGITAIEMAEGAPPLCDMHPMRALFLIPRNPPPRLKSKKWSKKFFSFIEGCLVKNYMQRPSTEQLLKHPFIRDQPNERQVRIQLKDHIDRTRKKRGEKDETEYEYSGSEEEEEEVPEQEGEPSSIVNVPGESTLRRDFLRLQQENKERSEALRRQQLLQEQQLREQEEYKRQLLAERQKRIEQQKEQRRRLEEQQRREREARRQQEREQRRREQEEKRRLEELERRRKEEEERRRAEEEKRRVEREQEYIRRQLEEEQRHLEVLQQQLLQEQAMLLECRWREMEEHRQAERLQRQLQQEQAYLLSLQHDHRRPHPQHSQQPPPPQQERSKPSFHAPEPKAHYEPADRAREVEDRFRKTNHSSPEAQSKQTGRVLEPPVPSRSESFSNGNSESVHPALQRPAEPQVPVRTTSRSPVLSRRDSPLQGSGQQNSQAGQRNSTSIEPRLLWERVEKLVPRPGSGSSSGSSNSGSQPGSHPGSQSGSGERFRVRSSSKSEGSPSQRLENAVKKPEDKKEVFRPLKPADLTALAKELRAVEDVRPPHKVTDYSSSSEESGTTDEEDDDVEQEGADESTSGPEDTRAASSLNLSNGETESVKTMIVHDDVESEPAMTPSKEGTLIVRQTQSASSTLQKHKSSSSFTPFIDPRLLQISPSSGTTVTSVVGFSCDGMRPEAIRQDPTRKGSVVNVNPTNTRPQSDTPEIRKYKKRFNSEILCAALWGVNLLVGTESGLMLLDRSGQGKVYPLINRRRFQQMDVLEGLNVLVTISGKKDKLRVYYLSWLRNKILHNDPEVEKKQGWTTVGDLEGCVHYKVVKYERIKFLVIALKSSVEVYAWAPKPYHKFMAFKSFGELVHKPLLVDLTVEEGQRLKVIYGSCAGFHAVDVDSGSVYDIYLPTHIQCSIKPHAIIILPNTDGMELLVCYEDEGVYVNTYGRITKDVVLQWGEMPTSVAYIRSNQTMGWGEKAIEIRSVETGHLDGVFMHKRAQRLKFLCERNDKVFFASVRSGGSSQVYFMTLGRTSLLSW
Description: radiometric kinase profiling (33 PanQinase). Conditions: read-out: Inhibitory effect (%) MAP4K4. In kind it is biochemical. Put shortly:
as §1

A further data set concerns the target T6, SIK2 (Homo sapiens, UniProt Q9H0K1).
T6 construct: purchased ProQinase (33PanQinase Activity Assay)
Nature of the data set: radiometric kinase profiling (33 PanQinase). In kind it is biochemical. Conditions: read-out: Inhibitory effect (%) SIK2. Put shortly: as §1

For data set [2], the system named is Tg (fli:EGFP) zebrafish embryos. Nature of the data set: Zebrafish embryo toxicity assay. In kind it is in vivo. The settings on record: 0.5 µM in egg water, three days. As to the method: Breeding pairs of the transgenic Casper zebrafish line Tg (fli:EGFP) were put together in a tank, and the next morning, all embryos were collected as previously described. Fertilized eggs that were at the same development stage (around 2.5 h post-fertilization (hpf)) were selected under the microscope. The eggs were randomly divided into different groups, and each group contained about 20 embryos. All the embryos were raised in egg water (60 μg/mL sea salt) and placed in a 28 °C incubator. The compounds dissolved in DMSO were diluted in egg water to a final concentration of 0.5 µM. Equal amounts of DMSO were added to the vehicle control group. Egg water was changed every day, and abnormal embryos were removed. Embryos were recorded until day 3. All experiments were performed in technical triplicates and repeated three times, and representative results are shown. The survival rate was calculated according to the following formula: Survival rate (%) = 100% × (Number of zebrafish that survived at the end)/(Number of zebrafish present at the beginning).

Sequence of ALK1 (P37023 22-503): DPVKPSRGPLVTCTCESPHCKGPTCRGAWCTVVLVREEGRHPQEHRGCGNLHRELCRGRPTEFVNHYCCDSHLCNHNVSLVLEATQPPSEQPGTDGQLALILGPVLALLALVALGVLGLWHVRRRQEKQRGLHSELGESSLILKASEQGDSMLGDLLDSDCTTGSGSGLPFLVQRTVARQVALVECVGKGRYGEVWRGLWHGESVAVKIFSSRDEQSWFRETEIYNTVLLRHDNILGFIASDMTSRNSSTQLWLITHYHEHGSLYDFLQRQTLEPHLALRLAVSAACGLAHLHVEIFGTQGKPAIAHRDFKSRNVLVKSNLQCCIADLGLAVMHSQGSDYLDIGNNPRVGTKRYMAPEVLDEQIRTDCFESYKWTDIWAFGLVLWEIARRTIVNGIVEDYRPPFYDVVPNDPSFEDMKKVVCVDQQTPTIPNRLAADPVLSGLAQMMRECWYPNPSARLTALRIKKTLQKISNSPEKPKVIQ
T1 sequence (P15056 whole entry): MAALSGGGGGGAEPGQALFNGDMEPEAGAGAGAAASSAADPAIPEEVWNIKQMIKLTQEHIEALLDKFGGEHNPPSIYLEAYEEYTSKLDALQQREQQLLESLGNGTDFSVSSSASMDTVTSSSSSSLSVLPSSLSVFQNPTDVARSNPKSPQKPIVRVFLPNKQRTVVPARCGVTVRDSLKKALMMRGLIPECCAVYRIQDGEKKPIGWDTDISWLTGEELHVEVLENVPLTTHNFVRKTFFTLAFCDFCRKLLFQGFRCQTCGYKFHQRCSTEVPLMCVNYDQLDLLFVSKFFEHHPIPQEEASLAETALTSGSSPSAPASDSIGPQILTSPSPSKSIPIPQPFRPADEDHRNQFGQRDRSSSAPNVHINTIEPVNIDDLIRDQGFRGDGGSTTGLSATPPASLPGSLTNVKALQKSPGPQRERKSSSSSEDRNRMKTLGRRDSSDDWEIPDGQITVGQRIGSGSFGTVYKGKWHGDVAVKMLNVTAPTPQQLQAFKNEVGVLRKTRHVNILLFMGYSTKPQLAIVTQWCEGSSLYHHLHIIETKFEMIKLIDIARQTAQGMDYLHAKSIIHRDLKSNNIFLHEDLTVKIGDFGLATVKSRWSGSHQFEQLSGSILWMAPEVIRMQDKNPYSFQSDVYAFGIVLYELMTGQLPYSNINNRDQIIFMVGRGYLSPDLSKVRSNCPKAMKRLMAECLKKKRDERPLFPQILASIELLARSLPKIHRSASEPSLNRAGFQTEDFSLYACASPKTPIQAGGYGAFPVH
T6 sequence (Q9H0K1 whole entry): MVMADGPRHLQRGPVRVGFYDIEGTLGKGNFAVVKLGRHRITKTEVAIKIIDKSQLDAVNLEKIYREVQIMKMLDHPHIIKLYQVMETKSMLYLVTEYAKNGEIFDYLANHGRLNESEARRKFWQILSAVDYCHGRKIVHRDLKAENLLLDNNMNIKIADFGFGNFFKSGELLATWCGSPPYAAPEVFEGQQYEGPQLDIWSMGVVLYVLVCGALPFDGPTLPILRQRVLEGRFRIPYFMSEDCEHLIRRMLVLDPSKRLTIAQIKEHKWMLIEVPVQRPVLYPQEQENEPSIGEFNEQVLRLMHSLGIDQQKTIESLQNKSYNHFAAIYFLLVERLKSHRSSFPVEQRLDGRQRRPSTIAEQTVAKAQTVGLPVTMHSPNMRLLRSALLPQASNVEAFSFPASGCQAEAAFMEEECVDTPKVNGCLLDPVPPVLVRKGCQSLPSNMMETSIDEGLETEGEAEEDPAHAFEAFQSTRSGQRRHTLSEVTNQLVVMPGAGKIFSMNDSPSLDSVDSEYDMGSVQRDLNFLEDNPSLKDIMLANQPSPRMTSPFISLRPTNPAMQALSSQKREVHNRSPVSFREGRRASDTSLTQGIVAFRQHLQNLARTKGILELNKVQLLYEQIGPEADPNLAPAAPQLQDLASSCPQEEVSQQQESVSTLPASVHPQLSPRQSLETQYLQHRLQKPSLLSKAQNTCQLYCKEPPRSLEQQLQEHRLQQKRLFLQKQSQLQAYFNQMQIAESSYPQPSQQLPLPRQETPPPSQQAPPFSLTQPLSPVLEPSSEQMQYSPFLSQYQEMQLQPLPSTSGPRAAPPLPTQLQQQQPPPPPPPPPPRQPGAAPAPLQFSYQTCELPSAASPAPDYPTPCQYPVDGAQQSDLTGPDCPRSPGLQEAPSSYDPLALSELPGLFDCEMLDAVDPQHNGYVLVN

`CNC(=O)c1ccccc1Sc1ccc2c(/C=C/c3ccccn3)n[nH]c2c1` [Axitinib, reference compound]: in [1], the “effect on SIV vessel length” value is “markedly inhibited”. Further, in the data set with VEGF-induced pERK, the “effect on VEGF-induced pERK” value was “blocked”.

As for `c1ccc2c(-c3cnn4cc(-c5ccc(N6CCNCC6)cc5)cnc34)ccnc2c1` [LDN-193189, reference compound], in [1], the “effect on SIV vessel length” value was “resulted in a lack of SIV vessels” and the “effect on number of SIV tip cells (leading buds)” value (from here on “effect on number of SIV tip cells”) is on record as “significantly increased”.

Regarding `CN1CCc2cccc(c2)Nc2nccc(n2)N2CCCc3cc(ccc32)C1` [OD16], on ALK1, the Kd (as a rule, the equilibrium constant for the complex coming apart) amounted to 20 nM. In addition, the inhibition at 0.1 µM is 5.01% on BRAF; 14.6% on MAP4K5; 14.8% on FGFR3; 4.56% on FLT3; -0.07% at MAP4K4; 43.8% at SIK2. The “effect on SIV vessel length” value in data set [1] is reported as “significantly inhibited”. Also, the “effect on number of SIV tip cells” value in data set [1] is on record as “did not influence”. Moreover, the “survival rate of the zebrafish” value in data set [2] is 80–93%. Further, the “effect on VEGF-induced pERK” value in the data set with VEGF-induced pERK is recorded as “failed to alter”.

`CN1CCC(=O)NCCNc2ccn3ncc(c3n2)-c2cccc(c2)C1` [OD29] displayed an equilibrium dissociation constant (Kd) on ALK1 of 6 nM. For the same molecule, the inhibition at 0.1 µM on BRAF was 5.1%; on MAP4K5, 19.1%; on FGFR3, 49.5%; on FLT3, -4.23%; at MAP4K4 it was 13.5%; at SIK2, 1.13%. In addition, in data set [1], the “effect on SIV vessel length” value is given as “significantly inhibited”. Also, the “effect on number of SIV tip cells” value in [1] is reported as “did not influence”. Moreover, the “survival rate of the zebrafish” value in [2] is listed as 80–93%. Moreover, the “effect on VEGF-induced pERK” value with VEGF-induced pERK is “profoundly decreased”.
